{"source": "patent EP0381514B1", "about": "“Use of N-methyl-sphingosine as inhibitor of cell growth” (The Biomembrane Institute, priority 1989, dated 1990)", "key": {"[1]": {"system": "human colonic cancer cells HRT-18", "assay": "Inhibition of growth of human colonic cancer cells HRT-18 in vitro (cell count after 3 days)", "type": "cell-based", "details": "HRT-18, 3 days", "description": "HRT-18 cells were seeded in plates in Dulbecco's modified Eagle's medium supplemented with 10% fetal calf serum (5 x 10⁵ cells per each 3 cm plate). After the cells were cultured overnight, the medium was replaced with the same media containing various concentrations of N,N-dimethyl- or N-monomethyl sphingosine, N-acetylsphingosine, and ceramide as shown in Fig. 4. Cultures were continued for 3 days, and cell numbers were counted. The percent inhibition of cell numbers in the presence of reagents was calculated as percent of control dishes, which contained no sphingosine derivatives."}, "[2]": {"molecular_target": "C-kinase", "assay": "Inhibition of C-kinase activity (liposome method, histone III-S, 32P-ATP)", "type": "biochemical, human", "design": "C-kinase ³²P incorporation: unit: cpm", "details": "for Inhibition of C-kinase (concentration in »M yielding 50% inhibition): C-kinase from A431 cells; for inhibitory activity of C-kinase: conclusion in words from Tables I, II and Figs. 2, 3; for C-kinase ³²P incorporation %: relative to phosphatidyl-serine, diolein, Ca⁺² control = 100", "description": "A431 cells were grown in a mixture of DME and Ham's F-12 medium (weight ratio 1:1) supplemented with 10% fetal calf serum (FCS). […] Briefly, cells were scraped by rubber policeman, suspended in 50 ml of 20 mM Tris-HCL (pH 7.5), 2 mM EDTA, 0.5 mM EGTA, 0.15 U/ml aprotinine, and 0.25 M sucrose, and homogenized by 50 strokes at 4°C in a Dounce homogenizer (40-ml size, Wheaton). The homogenized cells were ultracentrifuged at 100,000 xg for 60 min. The supernatant was purified on a DE52 column equilibrated with 20 mM Tris-HCL (pH 7.5), 2 mM EDTA, and 0.5 mM EGTA (buffer B), and washed well with this buffer. The C-kinase activity was eluted with buffer B containing 0.1 M NaCl.\nThe lipid mixture was sonicated in 30 »l of 20 mM Tris-HCl (pH 7.5) for 30 min. The liposomes in the tube were supplemented with the reaction mixture, consisting of 25 mM Tris-HCl (pH 7.5), 10 mM MgCl₂, 400 »M EDTA, 50 »M EGTA, 500 »M CaCl₂, 200 »g/ml Histone III-S, and 20 »M gamma-[³²P]-ATP (2 x 10⁶ cpm); final volume was 90 »l.\nThe reaction was initiated by addition of 10 »l of C-kinase fraction (containing 1-2 »g protein) prepared as described above, and the reaction mixture was incubated for 10 min at 30°C. […] The value without phosphatidylserine, 1,2-diolein, or Ca²⁺ were used as a control."}, "[3]": {"system": "human peripheral blood lymphocytes", "assay": "Inhibition of IL-2-dependent mitogenesis (3H-thymidine incorporation), human lymphocytes", "type": "cell-based", "details": "0.5 U/ml IL-2", "description": "Human peripheral blood lymphocytes isolated from human blood by known methods were cultured in RPMI containing 0.5 U/ml IL-2. […] Mitogenesis was measured by incorporation of ³H-thymidine into DNA over a 5-hour period. Percent inhibition as compared to the control value (without addition of any inhibitor) was determined."}, "[4]": {"system": "human peripheral blood lymphocytes", "assay": "Inhibition of concanavalin-A-induced mitogenesis (3H-thymidine uptake), human lymphocytes", "type": "cell-based", "details": "2 »g con-A/ml", "description": "Peripheral blood lymphocytes isolated from human blood by known methods were cultured in RPMI containing 2 »g con-A/ml for 18 hours in multiple wells. Subsequently, various concentrations of N,N-dimethylsphingosine, sphingosine, or N-acetylsphingosine as shown in Fig. 6 were added to the culture media and cultured continuously for 5 hours, followed by addition of ³H-thymidine. The thymidine uptake over a 5-hour period was determined. The % inhibition of mitogenesis was calculated based on control value (without addition of any inhibitor)."}, "[5]": {"system": "HRT18 tumor cells", "assay": "Inhibition of in vivo growth of HRT18 tumor cells in nude mice", "details": "44 »g/200 »l in PBS injected at day 7, 11 and 15; tumor weight estimated by size; significant (p>0.005 as printed)", "description": "The effect of N,N-dimethyl-sphingosine (prepared from naturally occurring sphingolipid as described in Example 3) on in vivo growth of HRT18 tumor cells in nude mice was determined as follows.\n1 x 10⁶ HRT-18 human colonic cancer cells were inoculated into nude mice at day 0 by known methods. N,N-dimethylsphingosine emulsified in phosphate buffered saline (PBS) (44 »g/200 »l) was injected at day 7, 11, and 15. Tumor growth weight in mg was estimated by the size of the tumors. Each group consisted of ten animals."}, "[6]": {"system": "mouse splenocytes", "assay": "Inhibition of IL-2-dependent mitogenesis, mouse splenocytes", "type": "cell-based", "description": "The effect of N,N-dimethyl-sphingosine (prepared from naturally occurring sphingolipid as described in Example 3) on IL-2-dependent mitogenesis was tested using human peripheral blood lymphocytes and mouse splenocytes.\nInhibition of IL-2-induced mitogenesis of mouse splenocytes was determined in an analogous manner."}, "[7]": {"system": "mouse splenocytes", "assay": "Inhibition of concanavalin-A-induced mitogenesis, mouse splenocytes", "type": "cell-based", "description": "The effect of N,N-dimethyl-sphingosine (prepared from naturally occurring sphingolipid as described in Example 3) on conconavalin-A (con-A) -induced mitogenesis was tested using human peripheral blood lymphocytes and mouse splenocytes.\nInhibition of con-A-induced mitogenisis of mouse splenocytes was determined in an analogous manner."}}, "data": [{"compound": "CCCCCCCCCCCCC/C=C/[C@@H](O)[C@H](CO)NC(C)=O", "note": "[N-acetylsphingosine, reference compound]", "values": [{"measurement": "inhibition of cell growth", "setting": "[1]; at 150 »M concentration", "value": "minimum inhibition"}, {"measurement": "Inhibition of C-kinase (concentration in »M yielding 50% inhibition)", "setting": "[2]", "value": "no inhibition"}, {"measurement": "inhibition of IL-2-dependent mitogenesis", "setting": "[3]", "value": "less so"}]}, {"compound": "CCCCCCCCCCCCC/C=C/[C@H](O)[C@H](N)CO", "note": "[L-erythro-sphingenine, L(-)-erythro-sphingenine, reference compound]", "values": [{"measurement": "inhibitory activity of C-kinase", "setting": "[2]", "value": "weak and similar inhibitory activity"}, {"measurement": "C-kinase ³²P incorporation", "setting": "[2]; lipid added at 50 »M", "value": "18549 ± 2760"}, {"measurement": "C-kinase ³²P incorporation %", "setting": "[2]; lipid added at 50 »M, 50 µM", "value": "47 ± 7", "unit": "%"}]}, {"compound": "CCCCCCCCCCCCC/C=C/[C@@H](O)[C@@H](N)CO", "note": "[D-erythro-sphingenine, D(+)-erythro-sphingenine, reference compound]", "values": [{"measurement": "inhibitory activity of C-kinase", "setting": "[2]", "value": "weak and similar inhibitory activity"}, {"measurement": "C-kinase ³²P incorporation", "setting": "[2]; lipid added at 50 »M", "value": "18754 ± 2184"}, {"measurement": "C-kinase ³²P incorporation %", "setting": "[2]; lipid added at 50 »M, 50 µM", "value": "47 ± 6", "unit": "%"}]}, {"compound": "CCCCCCCCCCCCC/C=C/[C@H](O)[C@@H](CO)N(C)C", "note": "[N,N-dimethyl-L-erythro-sphingenine]", "values": [{"measurement": "inhibitory activity of C-kinase", "setting": "[2]", "value": "weaker inhibitory activity"}, {"measurement": "C-kinase ³²P incorporation", "setting": "[2]; lipid added at 2 »M", "value": "37354 ± 1420"}, {"measurement": "C-kinase ³²P incorporation %", "setting": "[2]; lipid added at 2 »M, 2 µM", "value": "95 ± 4", "unit": "%"}, {"measurement": "C-kinase ³²P incorporation", "setting": "[2]; lipid added at 10 »M", "value": "25583 ± 1931"}, {"measurement": "C-kinase ³²P incorporation %", "setting": "[2]; lipid added at 10 »M, 10 µM", "value": "65 ± 5", "unit": "%"}, {"measurement": "C-kinase ³²P incorporation", "setting": "[2]; lipid added at 25 »M", "value": "21743 ± 577"}, {"measurement": "C-kinase ³²P incorporation %", "setting": "[2]; lipid added at 25 »M, 25 µM", "value": "55 ± 2", "unit": "%"}, {"measurement": "C-kinase ³²P incorporation", "setting": "[2]; lipid added at 50 »M", "value": 11020}, {"measurement": "C-kinase ³²P incorporation %", "setting": "[2]; lipid added at 50 »M, 50 µM", "value": 28, "unit": "%"}]}, {"compound": "Ceramide [reference compound]", "values": [{"measurement": "inhibition of cell growth", "setting": "[1]; at 150 »M concentration", "value": "minimum inhibition"}, {"measurement": "Inhibition of C-kinase (concentration in »M yielding 50% inhibition)", "setting": "[2]", "value": "no inhibition"}]}, {"compound": "CCCCCCCCCCCCC/C=C/[C@@H](O)[C@@H](N)CO", "note": "[sphingosine]", "values": [{"measurement": "inhibition of IL-2-dependent mitogenesis", "setting": "[3]", "value": "less so"}]}, {"compound": "CCCCCCCCCCCCC/C=C/[C@H](O)[C@H](CO)N(C)C", "note": "[N,N-dimethyl-L-threo-sphingosine]", "values": [{"measurement": "inhibition of cell growth", "setting": "[1]; at 12.5 »M concentration", "value": "significantly inhibited"}]}, {"compound": "CCCCCCCCCCCCC/C=C/[C@@H](O)[C@H](CO)N(C)C", "note": "[N,N-dimethyl-sphingosine]", "values": [{"measurement": "inhibition of con-A-dependent growth stimulation", "setting": "[4]", "value": "greatly inhibited"}, {"measurement": "inhibition of cell growth", "setting": "[1]; at 12.5 »M concentration", "value": "significantly inhibited"}, {"measurement": "inhibition of growth", "setting": "[5]", "value": "more than 50%"}, {"measurement": "inhibition of IL-2-dependent mitogenesis", "setting": "[3]", "value": "invariably inhibited"}, {"measurement": "inhibitory effect on IL-2-dependent mitogenesis", "setting": "[6]", "value": "strong inhibitory effect"}, {"measurement": "inhibitory effect on concanavalin-A-induced mitogenesis", "setting": "[7]", "value": "strong inhibitory effect"}]}, {"compound": "Lactosylsphingosine [reference compound]", "values": [{"measurement": "Inhibition of C-kinase (concentration in »M yielding 50% inhibition)", "setting": "[2]", "value": "no inhibition"}]}, {"compound": "N-monomethyl-sphingosine", "values": [{"measurement": "inhibition of cell growth", "setting": "[1]; at 12.5 »M concentration", "value": "significantly inhibited"}]}, {"compound": "CCCCCCCCCCCCC/C=C/[C@@H](O)[C@H](CO)N(C)C", "note": "[N,N-dimethyl-D-erythro-sphingenine]", "values": [{"measurement": "inhibitory activity of C-kinase", "setting": "[2]", "value": "strikingly strong inhibitory activity"}, {"measurement": "C-kinase ³²P incorporation", "setting": "[2]; lipid added at 2 »M", "value": "34206 ± 1220"}, {"measurement": "C-kinase ³²P incorporation %", "setting": "[2]; lipid added at 2 »M, 2 µM", "value": "86 ± 3", "unit": "%"}, {"measurement": "C-kinase ³²P incorporation", "setting": "[2]; lipid added at 10 »M", "value": "20563 ± 1173"}, {"measurement": "C-kinase ³²P incorporation %", "setting": "[2]; lipid added at 10 »M, 10 µM", "value": "52 ± 3", "unit": "%"}, {"measurement": "C-kinase ³²P incorporation", "setting": "[2]; lipid added at 25 »M", "value": "15214 ± 377"}, {"measurement": "C-kinase ³²P incorporation %", "setting": "[2]; lipid added at 25 »M, 25 µM", "value": "38 ± 1", "unit": "%"}, {"measurement": "C-kinase ³²P incorporation", "setting": "[2]; lipid added at 50 »M", "value": 5254}, {"measurement": "C-kinase ³²P incorporation %", "setting": "[2]; lipid added at 50 »M, 50 µM", "value": 13, "unit": "%"}]}]}
